Reference: patent US11123355B2, “Antiviral benzyl-amine phosphodiamide compounds” (Merck Sharp & Dohme Corp., priority 2016, dated 2021)
Read-outs that look alike come from different tables or passages of the source.

Tested on: HIV-1 (H9/IIB strain)
Assay: Multiple Round HIV-1 Infection Assay (Viking Assay) in MT4-GFP cells
Format: cell-based
Conditions: inhibition of reproductive ratio R0
In short: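 MT-4 cells with tat/rev-dependent GFP reporter infected overnight with virus at MOI ~0.01, then incubated in RPMI with 10% or 50% normal human serum with 10-point 3-fold dilutions (typically 8.4 μM–0.42 nM final). Green cells counted at ~48 and ~72 h to give R0; IC50 from 4-parameter fit of R0 inhibition.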

[1] = MT4-GFP cells infected with HIV-1, 10% normal human serum, read-out: Viking, IC50 (10% NHS)
[2] = MT4-GFP cells infected with HIV-1, 50% normal human serum, read-out: Viking, IC50 (50% NHS)

Substance | IC50 [1] | IC50 [2]
isopropyl 2-(((R)-((((R)-1-(6-amino-9H- purin-9-yl)propan-2-yl)oxy)methyl)((2-(4- chlorophenyl)propan-2- yl)amino)phosphoryl)amino)-2- methylpropanoate and isopropyl 2-(((S)-((((R)-1-(6-amino-9H- purin-9-yl)propan-2-yl)oxy)methyl)((2-(4- chlorophenyl)propan-2- yl)amino)phosphoroyl)amino)-2- methylpropanoate [Example 36B] | 200 nM | 1100 nM
propyl 2-(((R)-((((R)-1-(6-amino-9H-purin- 9-yl)propan-2-yl)oxy)methyl)((3- fluorobenzyl)amino)phosphoryl)amino)-2- methylpropanoate and propyl 2-(((S)-((((R)-1-(6-amino-9H-purin- 9-yl)propan-2-yl)oxy)methyl)((3- fluorobenzyl)amino)phosphoryl)amino)-2- methylpropanoate [Example 8A] | 110 nM | 680 nM
propyl 2-(((R)-((((R)-1-(6-amino-9H-purin- 9-yl)propan-2-yl)oxy)methyl)((3- fluorobenzyl)amino)phosphoryl)amino)-2- methylpropanoate and propyl 2-(((S)-((((R)-1-(6-amino-9H-purin- 9-yl)propan-2-yl)oxy)methyl)((3- fluorobenzyl)amino)phosphoryl)amino)-2- methylpropanoate [Example 8B] | 76 nM | 680 nM
propyl 2-(((R)-((((R)-1-(6-amino-9H-purin- 9-yl)propan-2-yl)oxy)methyl)((4- cyanobenzyl)amino)phosphoryl)amino)-2- methylpropanoate and propyl 2-(((S)-((((R)-1-(6-amino-9H-purin- 9-yl)propan-2-yl)oxy)methyl)((4- cyanobenzyl)amino)phosphoryl)amino)-2- methylpropanoate [Example 6A] | 70 nM | 660 nM
propyl 2-(((R)-((((R)-1-(6-amino-9H-purin- 9-yl)propan-2-yl)oxy)methyl)((4- cyanobenzyl)amino)phosphoryl)amino)-2- methylpropanoate and propyl 2-(((S)-((((R)-1-(6-amino-9H-purin- 9-yl)propan-2-yl)oxy)methyl)((4- cyanobenzyl)amino)phosphoryl)amino)-2- methylpropanoate [Example 6B] | 250 nM | 850 nM
propyl 2-(((R)-((((R)-1-(6-amino-9H-purin- 9-yl)propan-2-yl)oxy)methyl)((4- isopropylbenzyl)amino)phosphoryl)amino)- 2-methylpropanoate and propyl 2-(((S)-((((R)-1-(6-amino-9H-purin- 9-yl)propan-2-yl)oxy)methyl)((4- isopropylbenzyl)amino)phosphoryl)amino)- 2-methylpropanoate [Example 5B] | 48 nM | 240 nM
propyl 2-(((R)-((((R)-1-(6-amino-9H-purin- 9-yl)propan-2-yl)oxy)methyl)(((R)-1-(4- cyanophenyl)-2,2,2- trifluoroethyl)amino)phosphoryl)amino)-2- methylpropanoate and propyl 2-(((S)-((((R)-1-(6-amino-9H-purin- 9-yl)propan-2-yl)oxy)methyl)(((R)-1-(4- cyanophenyl)-2,2,2- trifluoroethyl)amino)phosphoryl)amino)-2- methylpropanoate [Example 23A] | 6.1 nM | 37 nM
propyl 2-(((R)-((((R)-1-(6-amino-9H-purin- 9-yl)propan-2-yl)oxy)methyl)(((R)-1-(4- cyanophenyl)-2,2,2- trifluoroethyl)amino)phosphoryl)amino)-2- methylpropanoate and propyl 2-(((S)-((((R)-1-(6-amino-9H-purin- 9-yl)propan-2-yl)oxy)methyl)(((R)-1-(4- cyanophenyl)-2,2,2- trifluoroethyl)amino)phosphoryl)amino)-2- methylpropanoate [Example 23B] | 47 nM | 140 nM
